# Tested on: patients with RMS
# Experiment: TEMSO Phase III trial: relapses, disability progression, fatigue
# Assay type: in vivo, humans
# Conditions: for Hazard ratio for teriflunomide vs placebo (12-week sustained disability progression) / Hazard ratio for teriflunomide vs placebo (relapse): Cox model; for Patients with a 12-week sustained disability progression / Patients without relapse during 108 weeks: Kaplan-Meier estimate; for Fatigue Impact scale score, LS mean change from baseline: MMRM
# Description: They were required to have a score of no more than 5.5 on the Kurtzke Expanded Disability Status Scale (EDSS), a minimum of two clinical relapses in the previous 2 years or one relapse during the preceding year, but no relapses in the 60 days before randomization. During the 4 weeks prior to randomization, patients were required to be clinically stable and have signed both the informed consent form and informed consent for HIV testing.
# A treatment neurologist at each site was responsible for evaluating patient eligibility, supervision of study medication administration, recording and treating adverse events and assessing relapses, and monitoring safety assessments. An independent examining neurologist, blinded to treatment assignment, performed all EDSS scores and functional system assessments. EDSS scores were determined at screening, baseline, every 12 weeks following baseline visit, and at unscheduled relapse visits. MRI scans were performed at baseline and Weeks 24, 48, 72 and 108, and conducted according to the study protocol; image data were collected at clinical site MRI facilities.
# For suspected relapses occurring between study visits, patients were required to attend the study site within 7 days of symptom onset for objective assessment by the examining neurologist. Relapses could be treated with intravenous corticosteroids at the investigator's discretion.
# The primary study objective was to determine the effect of teriflunomide in reducing annualized relapse rate (ARR; the number of confirmed relapses per patient-year). A relapse was defined as the appearance of a new clinical sign or symptom or clinical worsening of a previous sign or symptom that had been stable for at least 30 days and persisted for a minimum of 24 hours in the absence of fever. Confirmed relapses required an increase of 1 point in at least two functional systems, or an increase of 2 points in at least one functional system (excluding bowel/bladder and cerebral function), or an increase of 0.5 points in EDSS score (1.0 for EDSS=0) from the previous clinically stable assessment.
# The key secondary endpoint was to determine the effect of teriflunomide on delaying disability progression at Week 108 as assessed by changes in EDSS. Sustained disability progression was defined as a persisting increase from baseline of at least 1.0 point on the EDSS (or at least 0.5 for patients with a baseline EDSS score greater than 5.5) for at least 12 weeks. The key prespecified MRI endpoint was the effect of teriflunomide on burden of disease (total lesion volume). Other MRI endpoints included number of gadolinium (Gd)-enhancing T1 lesions, volume of T1 hypointense lesion components (‘black holes’), number of unique active lesions and brain atrophy. Patient-reported fatigue, assessed by the Fatigue Impact Scale (FIS), was an additional secondary endpoint.
# A sample size of 360 randomized patients per group was required to provide 95% statistical power to detect relative risk reductions (RRR) of 25% in ARR after 2 years, assuming a placebo ARR of 0.74 and standard deviation of 0.626. All analyses followed an intention-to-treat (ITT) principle and all inferential analyses were performed at the 2-sided 5% level of significance. ARR was analyzed using a Poisson regression model with robust error variance. The model included the total number of confirmed relapses as the response variable, and treatment, baseline EDSS strata, and region as covariates, and log transformed duration of treatment as offset variable.
# Disability progression was analyzed using a log-rank test with time to first disability progression as the dependent variable, treatment as test variable, and region and baseline EDSS score as strata variables. Kaplan-Meier estimates and curves of the cumulative incidence were used to assess the rate of disability progression in patients across time points. […]
# [1] = 7 mg once daily oral, 108 weeks, ITT population
# [2] = 7 mg once daily oral, 108 weeks, ITT population (N = 365)
# [3] = 14 mg once daily oral, 108 weeks, ITT population
# [4] = 14 mg once daily oral, 108 weeks, ITT population (N = 358)
smiles,measurement,setting,value
"C/C(O)=C(\C#N)C(=O)Nc1ccc(C(F)(F)F)cc1 [teriflunomide, (Z)-2-cyano-3-hydroxy-but-2-enoic acid-(4′-trifluoromethylphenyl)-amide]",Hazard ratio for teriflunomide vs placebo (12-week sustained disability progression),[1],0.763
same,Hazard ratio for teriflunomide vs placebo (relapse),[1],0.756
same,Adjusted Annualized Relapse Rate,[1],0.370
same,Hazard ratio reduction vs placebo (disability progression),[1],23.7%
same,No. of relapses 0 - patients (%),[1],(57.8) %
same,No. of relapses 1 - patients (%),[1],(25.2) %
same,No. of relapses 2 - patients (%),[1],(13.4) %
same,No. of relapses 3 - patients (%),[1],(2.7) %
same,No. of relapses ≧4 - patients (%),[1],(0.8) %
same,Relative Reduction in Annualized Relapse rate vs placebo,[1],31.2%
same,No. of relapses 0 - no. of patients,[2],211
same,No. of relapses 1 - no. of patients,[2],92
same,No. of relapses 2 - no. of patients,[2],49
same,No. of relapses 3 - no. of patients,[2],10
same,No. of relapses ≧4 - no. of patients,[2],3
same,Patients with a 12-week sustained disability progression,[1],21.7%
same,"Fatigue Impact scale score, LS mean change from baseline",[1],2.3
same,Patients without relapse during 108 weeks,"7 mg once daily oral, ITT population",53.7%
same,"patients who discontinued treatment due to disease progression, compared with placebo","14 mg group, p=0.02",lower number
same,Hazard ratio for teriflunomide vs placebo (12-week sustained disability progression),[3],0.702
same,Hazard ratio for teriflunomide vs placebo (relapse),[3],0.719
same,Adjusted Annualized Relapse Rate,[3],0.369
same,No. of relapses 0 - patients (%),[3],(60.6) %
same,No. of relapses 1 - patients (%),[3],(24.0) %
same,No. of relapses 2 - patients (%),[3],(9.2) %
same,No. of relapses 3 - patients (%),[3],(4.5) %
same,No. of relapses ≧4 - patients (%),[3],(1.7) %
same,No. of relapses 0 - no. of patients,[4],217
same,No. of relapses 1 - no. of patients,[4],86
same,No. of relapses 2 - no. of patients,[4],33
same,No. of relapses 3 - no. of patients,[4],16
same,No. of relapses ≧4 - no. of patients,[4],6
same,Patients with a 12-week sustained disability progression,[3],20.2%
same,"Fatigue Impact scale score, LS mean change from baseline",[3],3.8
same,Patients without relapse during 108 weeks,"14 mg once daily oral, ITT population",56.5%
same,Patient-reported fatigue (FIS scores),"all treatment groups, during the study",remained stable

# Reference: US20130197080A1, “USE OF TERIFLUNOMIDE FOR TREATING MULTIPLE SCLEROSIS” (SANOFI, priority 2010, published 2013)
